Reference: patent publication US20020031520A1, “PREVENTION AND TREATMENT OF HEPATOCELLULAR CANCER” (priority 1997, published 2002)
Where no end group is shown, it is not given here.

Tests used:
AFP+/HLA A2.1+ HepG2 = experiment: 4 hour 51Cr-release assay of peptide-generated CTL against HepG2; type: cell-based, human
Protocol: IL-2 was added twice weekly at 10 units/ml. […] Non-specific NK killing was assessed with the NK sensitive target K562. The CTL were also tested against the HLA A2.1-positive, AFP-positive human hepatocellular carcinoma cell line, HepG2. Referring now to Table III, there are shown the cytotoxicity results of tests for the twelve AFP peptide sequences used to generate CTL from normal donors that gave positive peptide cytotoxicity results. […] Further, new AFP49 peptide-generated CTL cultures were made using two different, normal HLA A2.1 donors. Additional targets were used to confirm that the cytotoxicity observed using AFP49 was AFP antigen-specific and class I restricted. Referring now to FIG. 1, there is shown representative data of these tests. First, to confirm that the observed cytotoxicity was class I restricted, anti-β2 microglobulin antibody was used to block the CTL-T cell receptor interaction on HepG2 cells. […] Next, to eliminate non-specific NK/LAK killing, a 40-fold excess of unlabeled (cold) K562 cells was added. […] Also, an AFP+, HLA A2.1-negative hepatocellular carcinoma cell line, Hep3B, that is, a class I-mismatched hepatocellular carcinoma cell line, was also used as a target. […] This small amount of observed Hep3B lysis was eliminated by adding an excess of cold K562 cells, in contrast to the retention of specific killing of HepG2 when cold K562 cells were added.

HLA A2.1 [1] = target: T1, HLA A2.1 (Homo sapiens, UniProt P04439, D140Y/D185E/D98H/E176V/E277Q/G131W/G231S/I119V/I121R/I166T/I218V/L300P/L318F/N151K/N90K/P208A/P217A/Q86G/Q94H/R138H/R169H/T345S); experiment: T2 cell stabilization assay; type: binding; settings: peptide tested 0.1 μM-100 μM; flow cytometry with BB7.2; (n.s.) = not stable
HLA A2.1 [2] = target: T1, HLA A2.1; experiment: EBV lymphoblastoid cell off-kinetics assay; type: binding; settings: for Time of Peptide Stability on Lymphoblastoid Cells: pulsed at 200 μM for 1 hour, followed 0, 2, 4 and 6 hours at 37° C., (n.s.) = not stable
Source text: The cells were washed at the end of each time point and stained for HLA A2 with the BB7.2 antibody.

[3] = test system: M202 (HLA A2.1+/AFP-) melanoma cells transduced with AdVhAFP; experiment: chromium release assay of peptide-specific CTL against M202 cells transduced with AdVhAFP or control AdVRR5; type: cell-based, human; settings: FIG. 2
[4] = test system: T2 cells pulsed with the specific peptide; settings: FIG. 2; T2 pulsed with specific peptide versus a different HLA A2.1 binding peptide

FMNKFIYEI [AFP5]
AFP+/HLA A2.1+ HepG2 Cytotoxicity (AFP+/HLA A2.1+ HepG2; E:T 5:1): 4%
AFP+/HLA A2.1+ HepG2 Cytotoxicity (AFP+/HLA A2.1+ HepG2; E:T 20:1): 7%

FQAITVTKL [AFP45]
AFP+/HLA A2.1+ HepG2 Cytotoxicity (AFP+/HLA A2.1+ HepG2; E:T 10:1): 9%
AFP+/HLA A2.1+ HepG2 Cytotoxicity (AFP+/HLA A2.1+ HepG2; E:T 50:1): 27%

FQKLGEYYL [AFP34, residues 419-427 of hAFP]
Minimum Concentration of Peptide to Stabilize A2 on T2 cells (HLA A2.1 [1]): 100 µM
Time of Peptide Stability on Lymphoblastoid Cells (HLA A2.1 [2]): (n.s.)

FVQEATYKF [AFP8, residues 54-62 of hAFP]
Minimum Concentration of Peptide to Stabilize A2 on T2 cells (HLA A2.1 [1]): (n.s.)
Time of Peptide Stability on Lymphoblastoid Cells (HLA A2.1 [2]): >2 h

GVALQTMKL (listed as Homo sapiens) [AFP49L9, single amino acid substitution in position 9 of AFP49]
killing of M202/AdVhAFP compared with AFP49 peptide-specific CTL cultures [3]: even more effectively
killing of M202/AdVhAFP versus M202/RR5 [3]: significantly more killing of M202 cells transduced with AdVhAFP

GVALQTMKQ [AFP49]
AFP+/HLA A2.1+ HepG2 Cytotoxicity (AFP+/HLA A2.1+ HepG2; E:T 10:1): 17%
AFP+/HLA A2.1+ HepG2 Cytotoxicity (AFP+/HLA A2.1+ HepG2; E:T 50:1): 45%

GVALQTMKV (listed as Homo sapiens) [AFP49V9]
killing of M202/AdVhAFP compared with AFP49 peptide-specific CTL cultures [3]: even more effectively
killing of M202/AdVhAFP versus M202/RR5 [3]: significantly more killing of M202 cells transduced with AdVhAFP
peptide specificity of CTL culture [4]: showed peptide specificity

ILLWAARYD [AFP18, residues 178-186 of hAFP]
Minimum Concentration of Peptide to Stabilize A2 on T2 cells (HLA A2.1 [1]): (n.s.)
Time of Peptide Stability on Lymphoblastoid Cells (HLA A2.1 [2]): >6 h

KELRESSLL [AFP16, residues 211-219 of hAFP]
Minimum Concentration of Peptide to Stabilize A2 on T2 cells (HLA A2.1 [1]): (n.s.)
Time of Peptide Stability on Lymphoblastoid Cells (HLA A2.1 [2]): 2 h

KLVLDVAHV [AFP4]
AFP+/HLA A2.1+ HepG2 Cytotoxicity (AFP+/HLA A2.1+ HepG2; E:T 5:1): 4%
AFP+/HLA A2.1+ HepG2 Cytotoxicity (AFP+/HLA A2.1+ HepG2; E:T 20:1): 7%

KMVKDALTAI [AFP64, residues 65-74 of hAFP]
Minimum Concentration of Peptide to Stabilize A2 on T2 cells (HLA A2.1 [1]): 100 µM
Time of Peptide Stability on Lymphoblastoid Cells (HLA A2.1 [2]): (n.s.)

KQEFLINLV [AFP37]
AFP+/HLA A2.1+ HepG2 Cytotoxicity (AFP+/HLA A2.1+ HepG2; E:T 5:1): 0%
AFP+/HLA A2.1+ HepG2 Cytotoxicity (AFP+/HLA A2.1+ HepG2; E:T 25:1): 2%

LLNFTESRT [AFP7]
AFP+/HLA A2.1+ HepG2 Cytotoxicity (AFP+/HLA A2.1+ HepG2; E:T 10:1): 6%
AFP+/HLA A2.1+ HepG2 Cytotoxicity (AFP+/HLA A2.1+ HepG2; E:T 50:1): 15%

MKWVESIFL [AFP38]
AFP+/HLA A2.1+ HepG2 Cytotoxicity (AFP+/HLA A2.1+ HepG2; E:T 10:1): 0%
AFP+/HLA A2.1+ HepG2 Cytotoxicity (AFP+/HLA A2.1+ HepG2; E:T 50:1): 12%

NLVKQKPQI [AFP23]
AFP+/HLA A2.1+ HepG2 Cytotoxicity (AFP+/HLA A2.1+ HepG2; E:T 5:1): 2%
AFP+/HLA A2.1+ HepG2 Cytotoxicity (AFP+/HLA A2.1+ HepG2; E:T 20:1): 15%

PVNPGVGQC [AFP39]
AFP+/HLA A2.1+ HepG2 Cytotoxicity (AFP+/HLA A2.1+ HepG2; E:T 10:1): 12%
AFP+/HLA A2.1+ HepG2 Cytotoxicity (AFP+/HLA A2.1+ HepG2; E:T 50:1): 29%

QLTSSELMAI [AFP14, residues 441-450 of hAFP]
Minimum Concentration of Peptide to Stabilize A2 on T2 cells (HLA A2.1 [1]): 50.0 µM
off-kinetics (in words) (HLA A2.1 [2]): slow off-kinetics
Time of Peptide Stability on Lymphoblastoid Cells (HLA A2.1 [2]): >2 h

SLVVDETYV [AFP17, residues 514-522 of hAFP]
Minimum Concentration of Peptide to Stabilize A2 on T2 cells (HLA A2.1 [1]): 1.0 µM
Time of Peptide Stability on Lymphoblastoid Cells (HLA A2.1 [2]): (n.s.)

TLSNKITEC [AFP60, residues 294-302 of hAFP]
Minimum Concentration of Peptide to Stabilize A2 on T2 cells (HLA A2.1 [1]): 50 µM
Time of Peptide Stability on Lymphoblastoid Cells (HLA A2.1 [2]): (n.s.)

TMKQEFLINL [AFP22]
AFP+/HLA A2.1+ HepG2 Cytotoxicity (AFP+/HLA A2.1+ HepG2; E:T 5:1): 9%
AFP+/HLA A2.1+ HepG2 Cytotoxicity (AFP+/HLA A2.1+ HepG2; E:T 20:1): 24%

YICSQQDTL [AFP28, residues 287-295 of hAFP]
Minimum Concentration of Peptide to Stabilize A2 on T2 cells (HLA A2.1 [1]): 50 µM
Time of Peptide Stability on Lymphoblastoid Cells (HLA A2.1 [2]): 2 h

YIQESQALA [AFP13, residues 404-412 of hAFP]
Minimum Concentration of Peptide to Stabilize A2 on T2 cells (HLA A2.1 [1]): 10.0 µM
Time of Peptide Stability on Lymphoblastoid Cells (HLA A2.1 [2]): >2 h
